We go through 3 substances from patent US20120107240A1, “Probes and methods of melanoma imaging” (The Board of Trustees of the Leland Stanford Junior …, priority 2010, published 2012).

One data set relates to B16F10 tumor. Kind of data set: microPET quantification (ROI analysis) of tumors and other organs in B16F10 tumor-bearing mice. The class given is in vivo, C57BL/6 mice. Particulars: for tumor uptake: tail vein, B16F10 tumor. The protocol: B16F10 was cultured in Dulbecco's modified Eagle high-glucose medium (Gibco Life Sciences) supplemented with 10% fetal bovine serum with penicillin and streptomycin. The cells were regularly maintained in a 37° C., 5% CO2 humidified incubator. The subcutaneous B16F10 tumor models were prepared with 5- to 6-wk-old male C57BL/6 mice (Charles River). Static microPET scans were performed on the B16F10 tumor-bearing mice and representative decay-corrected coronal images at 0.5, 1, and 2 h after tail vein injection of ^18F-P3BZA (3-^18F-fluoropicolinamide) probe and ^18F-P2BZA (2-^18F-fluoronicotinamide) probe are shown in FIG. 2 (n=5 for each group), from which the B16F10 tumors were clearly visualized with good tumor-to-background contrast for both tracers (the white arrows indicate the tumors).
The microPET quantification analysis of tumors and other organs was obtained from the ROI analysis and the results at 0.5, 1, and 2 h p.i. are shown in FIG. 3. The tumor uptake of 18F-F3BZA probe was 11.8±2.2, 13.2±2.4, and 14.5±3.2% ID/g at 0.5, 1, and 2 h p.i., respectively. For ^18F-P2BZA probe, the tumor uptake was 5.5±1.6, 4.6±2.4, 5.5±2.6% ID/g at 0.5, 1, and 2 h p.i., respectively. […] The unspecific uptake by muscle is very low, 0.8±0.4, 1.0±0.5, 0.6±0.3% ID/g at 0.5, 1, and 2 h p.i.), which is the explanation of the high contrast images shown in FIG. 2.
(§1) The ^18F-fluoropicolinamides were prepared by radiofluorination reactions using no-carrier-added ^18F-fluoride and evaluated in vivo by biodistribution studies and micro-positron emission tomography (microPET) imaging in C57BL/6 mice bearing B16F10 murine melanoma tumors.

Data set [1] has as its system B16F10 murine melanoma tumors. The experiment in a line: Noninvasive microPET and direct tissue sampling (biodistribution) in subcutaneous B16F10 melanoma xenografts. The class given is in vivo, C57BL/6 mice. The procedure: as §1
The total synthesis time was less than 1 hour. The radiochemical purity of the ^18F-labeled probes was more than 98% and the specific activity was 100-150 GBq/μmol.

“2-^18F-fluoronicotinamide [^18F-P2BZA, reference compound]”: the tumor uptake in the data set on B16F10 tumor (0.5 h post injection) turned out to be 5.5±1.6 % ID/g; in the data set on B16F10 tumor (1 h post injection), 4.6±2.4 % ID/g; with B16F10 tumor (2 h post injection) it was 5.5±2.6 % ID/g.
Turning to 3-^18F-fluoropicolinamide [^18F-P3BZA], the results for the Kidneys uptake in the data set on B16F10 tumor (0.5 h p.i.), with B16F10 tumor (1 h p.i.) and in the data set with B16F10 tumor (2 h p.i.) were 6.9±1.1 % ID/g, 4.7±0.8 % ID/g and 3.0±0.6 % ID/g, respectively. The results for the Liver uptake in the data set with B16F10 tumor (0.5 h p.i.), with B16F10 tumor (1 h p.i.) and with B16F10 tumor (2 h p.i.) were 5.1±0.8 % ID/g, 4.3±1.1 % ID/g and 3.0±0.6 % ID/g, respectively. Moreover, the “unspecific uptake by muscle” value in the data set on B16F10 tumor (0.5 h p.i.) is on record as 0.8±0.4 % ID/g; in the data set with B16F10 tumor (1 h p.i.), 1.0±0.5 % ID/g; with B16F10 tumor (2 h p.i.), 0.6±0.3 % ID/g. In addition, the tumor uptake is reported as 11.8±2.2 % ID/g in the data set with B16F10 tumor (0.5 h post injection); 13.2±2.4 % ID/g in the data set with B16F10 tumor (1 h post injection); 14.6±3.2 % ID/g in the data set on B16F10 tumor (2 h post injection); 14.5±3.2 % ID/g in the data set on B16F10 tumor (2 h post injection, listed as 18F-F3BZA). The “tumor to muscle ratio” value with B16F10 tumor (at 2 h) is 25.3. The “clearance from the blood” value with B16F10 tumor (mouse, in vivo) is “cleared rapidly”. For the same substance, the in vivo stability entry in data set [1] (evidenced by bone uptake) is given as “good”. Besides, the “bone uptake in biodistribution studies” value in data set [1] (mouse, in vivo) is recorded as “low”.
Turning to 4-^18F-fluoropicolinamide [^18F-P4BZA], the values for the tumor uptake with B16F10 tumor (0.5 h post injection), in the data set on B16F10 tumor (1 h post injection) and with B16F10 tumor (2 h post injection) were 10.7±1.3 % ID/g, 10.5±1.8 % ID/g and 8.7±2.3 % ID/g, respectively. Further, the bone uptake in the data set on B16F10 tumor (1 h postinjection) came to 11.3±2.9 % ID/g; in the data set on B16F10 tumor (2 h postinjection) it was 10.3±3.6 % ID/g. For the same substance, in the data set on B16F10 tumor (evidenced by bone uptake), the “defluorination in the murine model” value is reported as “very high”.
